Data from patent US11020398B2, “Amino-pyrrolopyrimidinone compounds and methods of use thereof” (ArQule, Inc., priority 2016, dated 2021).

Target: phosphorylated form of full length BTK (active BTK) (Homo sapiens (Human), UniProt Q06187)
Experiment: Mobility shift assay (MSA, Caliper LabChip), active BTK assay
Format: biochemical
Conditions: Assay type B (MSA using active BTK)
Experimental: The active BTK assay consists of phosphorylated form of full length BTK. […] The enzyme inhibitor complexes is incubated, before the kinase activation reaction is initiated.
Mobility Shift Assay (MSA)
The active BTK assay consisted of phosphorylated form of full length BTK. […] The enzyme inhibitor complexes was incubated for 30 minutes at the room temperature and the kinase activation reaction was initiated by the addition of 1 μM Srctide peptide substrate and […].

phosphorylated form of full length BTK (active BTK), sequence (Q06187 whole entry): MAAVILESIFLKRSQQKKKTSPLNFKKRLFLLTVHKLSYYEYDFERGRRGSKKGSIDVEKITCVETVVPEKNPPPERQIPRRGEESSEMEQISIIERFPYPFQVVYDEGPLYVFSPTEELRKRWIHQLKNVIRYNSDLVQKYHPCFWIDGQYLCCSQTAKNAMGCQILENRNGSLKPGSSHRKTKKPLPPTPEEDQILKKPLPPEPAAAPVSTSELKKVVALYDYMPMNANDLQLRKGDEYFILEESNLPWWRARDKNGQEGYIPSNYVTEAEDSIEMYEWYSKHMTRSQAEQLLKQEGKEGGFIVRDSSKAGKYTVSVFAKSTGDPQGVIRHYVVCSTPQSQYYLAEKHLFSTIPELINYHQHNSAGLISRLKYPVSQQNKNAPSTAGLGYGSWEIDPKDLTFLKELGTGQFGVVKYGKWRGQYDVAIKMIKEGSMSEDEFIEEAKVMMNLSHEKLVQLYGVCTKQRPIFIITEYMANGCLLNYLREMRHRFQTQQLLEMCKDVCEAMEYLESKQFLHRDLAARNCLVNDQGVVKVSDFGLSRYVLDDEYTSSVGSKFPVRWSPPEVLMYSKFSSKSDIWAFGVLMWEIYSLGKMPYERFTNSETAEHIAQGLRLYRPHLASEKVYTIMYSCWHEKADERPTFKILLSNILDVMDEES

| SMILES | IC50 [nM] |
| --- | --- |
| N[C@H]1C[C@@H](Nc2ncnc3[nH]cc(C(=O)c4ccc(Oc5ccccc5)cc4)c23)C1 [Compound I-190, (4-((cis-3-aminocyclobutyl)amino)-7H-pyrrolo[2,3-d]pyrimidin-5-yl)(4-phenoxyphenyl)methanone] | 17 |
| CC(C)(C)OC(=O)N[C@H]1CC[C@H](Nc2ncnc3[nH]cc(C(=O)c4ccc(Oc5ccccc5)cc4)c23)C1 [Compound I-184, tert-butyl ((1S,3S)-3-((5-(4-phenoxybenzoyl)-7H-pyrrolo[2,3-d]pyrimidin-4-yl)amino)cyclopentyl)carbamate] | 61 |
| CC(=O)N[C@H]1C[C@@H](Nc2ncnc3[nH]cc(C(=O)c4ccc(Oc5ccccc5)cc4)c23)C1 [Compound I-196, N-(cis-3-((5-(4-phenoxybenzoyl)-7H-pyrrolo[2,3-d]pyrimidin-4-yl)amino)cyclobutyl)acetamide] | 3.2 |
| C[C@H](O)C(=O)NC[C@@H]1CC[C@@H](Nc2ncnc3[nH]cc(C(=O)c4ccc(Oc5ccccc5)cc4Cl)c23)CO1 [Compound I-210, (S)—N-(((2S,5R)-5-((5-(2-chloro-4-phenoxybenzoyl)-7H-pyrrolo[2,3-d]pyrimidin-4-yl)amino)tetrahydro-2H-pyran-2-yl)methyl)-2-hydroxypropanamide] | 1.9 |
| O=C(c1ccc(Oc2ccccc2)cc1Cl)c1c[nH]c2ncnc(N[C@H]3CC[C@H](O)[C@H](O)C3)c12 (racemic) [Compound I-180, rac-(2-chloro-4-phenoxyphenyl)(4-(((1S,3R,4S)-3,4-dihydroxycyclohexyl)amino)-7H-pyrrolo[2,3-d]pyrimidin-5-yl)methanone] | 1.8 |
| CC(=O)N[C@H](C)[C@@H]1CC[C@@H](Nc2ncnc3[nH]cc(C(=O)c4ccc(Oc5ccccc5)cc4Cl)c23)CO1 [Compound I-195, N—((R)-1-((2S,5R)-5-((5-(2-chloro-4-phenoxybenzoyl)-7H-pyrrolo[2,3-d]pyrimidin-4-yl)amino)tetrahydro-2H-pyran-2-yl)ethyl)acetamide] | 2.2 |
| C[C@@H](O)[C@@H]1CC[C@@H](Nc2ncnc3[nH]cc(C(=O)c4ccc(Oc5cccc(F)c5)cc4Cl)c23)CO1 [Compound I-182, (2-chloro-4-(3-fluorophenoxy)phenyl)(4-(((3R,6S)-6-((R)-1-hydroxyethyl)tetrahydro-2H-pyran-3-yl)amino)-7H-pyrrolo[2,3-d]pyrimidin-5-yl)methanone] | 1.5 |
| C[C@H](O)C(=O)N[C@H]1CC[C@@H](Nc2ncnc3[nH]cc(C(=O)c4ccc(Oc5ccccc5)cc4)c23)CC1 [Compound I-202, (S)-2-hydroxy-N-(cis-4-((5-(4-phenoxybenzoyl)-7H-pyrrolo[2,3-d]pyrimidin-4-yl)amino)cyclohexyl)propanamide] | 1 |
| CC(=O)NC[C@@H]1CC[C@@H](Nc2ncnc3[nH]cc(C(=O)c4ccc(Oc5ccccc5)cc4Cl)c23)CO1 [Compound I-127, N-(((2S,5R)-5-((5-(2-chloro-4-phenoxybenzoyl)-7H-pyrrolo[2,3-d]pyrimidin-4-yl)amino)tetrahydro-2H-pyran-2-yl)methyl)acetamide] | 1.63 |
| CC(=O)NC[C@@H]1CC[C@@H](Nc2ncnc3[nH]cc(C(=O)c4ccc(Oc5ccccc5)cc4)c23)CO1 [Compound I-205, N-(((2S,5R)-5-((5-(4-phenoxybenzoyl)-7H-pyrrolo[2,3-d]pyrimidin-4-yl)amino)tetrahydro-2H-pyran-2-yl)methyl)acetamide] | 1.6 |
| CC(O)CCCCCC(=O)N[C@H]1CC[C@@H](Nc2ncnc3[nH]cc(C(=O)c4ccc(Oc5ccccc5)cc4Cl)c23)CC1 (mixture of isomers) [Compound I-214, rac-N-(cis-4-((5-(2-chloro-4-phenoxybenzoyl)-7H-pyrrolo[2,3-d]pyrimidin-4-yl)amino)cyclohexyl)-7-hydroxyoctanamide] | 7.4 |
| C[C@@H](O)C(=O)NC[C@@H]1CC[C@@H](Nc2ncnc3[nH]cc(C(=O)c4ccc(Oc5ccccc5)cc4Cl)c23)CO1 [Compound I-216, (R)—N-(((2S,5R)-5-((5-(2-chloro-4-phenoxybenzoyl)-7H-pyrrolo[2,3-d]pyrimidin-4-yl)amino)tetrahydro-2H-pyran-2-yl)methyl)-2-hydroxypropanamide] | 1.9 |
| N[C@H]1CC[C@@H](Nc2ncnc3[nH]cc(C(=O)c4ccc(Oc5ccccc5)cc4)c23)CC1 [Compound I-130, (4-((cis-4-aminocyclohexyl)amino)-7H-pyrrolo[2,3-d]pyrimidin-5-yl)(4-phenoxyphenyl)methanone] | 3.2 |
| C[C@H](O)C(=O)NC[C@@H]1CC[C@@H](Nc2ncnc3[nH]cc(C(=O)c4ccc(Oc5ccccc5)cc4)c23)CO1 [Compound I-211, (S)-2-hydroxy-N-(((2S,5R)-5-((5-(4-phenoxybenzoyl)-7H-pyrrolo[2,3-d]pyrimidin-4-yl)amino)tetrahydro-2H-pyran-2-yl)methyl)propanamide] | 2.9 |
| CC(=O)N[C@@H]1CC[C@@H](Nc2ncnc3[nH]cc(C(=O)c4ccc(Oc5ccccc5)cc4)c23)C1 [Compound I-192, N-((1R,3R)-3-((5-(4-phenoxybenzoyl)-7H-pyrrolo[2,3-d]pyrimidin-4-yl)amino)cyclopentyl)acetamide] | 4.4 |
| CN(C)C[C@]1(O)CC[C@@H](Nc2ncnc3[nH]cc(C(=O)c4ccc(Oc5ccccc5)cc4Cl)c23)CC1 [Compound I-178, (2-chloro-4-phenoxyphenyl)(4-((cis-4-((dimethylamino)methyl)-4-hydroxycyclohexyl)amino)-7H-pyrrolo[2,3-d]pyrimidin-5-yl)methanone] | 2.2 |
| CC(=O)N[C@H]1C[C@H](Nc2ncnc3[nH]cc(C(=O)c4ccc(Oc5ccccc5)cc4)c23)C1 [Compound I-199, N-(trans-3-((5-(4-phenoxybenzoyl)-7H-pyrrolo[2,3-d]pyrimidin-4-yl)amino)cyclobutyl)acetamide] | 6.8 |
| C[C@H](NC(=O)[C@@H](C)O)[C@@H]1CC[C@@H](Nc2ncnc3[nH]cc(C(=O)c4ccc(Oc5ccccc5)cc4Cl)c23)CO1 [Compound I-213, (R)—N—((S)-1-((2S,5R)-5-((5-(2-chloro-4-phenoxybenzoyl)-7H-pyrrolo[2,3-d]pyrimidin-4-yl)amino)tetrahydro-2H-pyran-2-yl)ethyl)-2-hydroxypropanamide] | 2.5 |
| C[C@@H](O)C(=O)N[C@H]1CC[C@@H](Nc2ncnc3[nH]cc(C(=O)c4ccc(Oc5ccccc5)cc4)c23)CC1 [Compound I-206, (R)-2-hydroxy-N-(cis-4-((5-(4-phenoxybenzoyl)-7H-pyrrolo[2,3-d]pyrimidin-4-yl)amino)cyclohexyl)propanamide] | 1.8 |
| CC(C)(C)OC(=O)N[C@H]1C[C@@H](Nc2ncnc3[nH]cc(C(=O)c4ccc(Oc5ccccc5)cc4)c23)C1 [Compound I-186, tert-butyl (cis-3-((5-(4-phenoxybenzoyl)-7H-pyrrolo[2,3-d]pyrimidin-4-yl)amino)cyclobutyl)carbamate] | 12 |

Results, then the molecule that gave them:

| IC50 [nM] | SMILES |
| --- | --- |
| 5.8 | CC(C)(O)C(=O)N[C@H]1CC[C@@H](Nc2ncnc3[nH]cc(C(=O)c4ccccc4Cl)c23)CC1 [Compound I-115, N-(cis-4-((5-(2-chlorobenzoyl)-7H-pyrrolo[2,3-d]pyrimidin-4-yl)amino)cyclohexyl)-2-hydroxy-2-methylpropanamide] |
| 16 | COC1CN([C@H]2CC[C@H](Nc3ncnc4[nH]cc(C(=O)c5ccccc5Cl)c34)CC2)C1 [Compound I-110, (2-chlorophenyl)(4-((trans-4-(3-methoxyazetidin-1-yl)cyclohexyl)amino)-7H-pyrrolo[2,3-d]pyrimidin-5-yl)methanone] |
| 3.2 | COC1CN([C@H]2CC[C@@H](Nc3ncnc4[nH]cc(C(=O)c5ccccc5Cl)c34)CC2)C1 [Compound I-109, (2-chlorophenyl)(4-((cis-4-(3-methoxyazetidin-1-yl)cyclohexyl)amino)-7H-pyrrolo[2,3-d]pyrimidin-5-yl)methanone] |
| 7 | COC[C@]1(O)CC[C@@H](Nc2ncnc3[nH]cc(C(=O)c4ccccc4Cl)c23)CC1 [Compound I-108, (2-chlorophenyl)(4-((cis-4-hydroxy-4-(methoxymethyl)cyclohexyl)amino)-7H-pyrrolo[2,3-d]pyrimidin-5-yl)methanone] |
| 3.6 | CC1(N)CN([C@H]2CC[C@@H](Nc3ncnc4[nH]cc(C(=O)c5ccccc5Cl)c34)CC2)C1 [Compound I-113, (4-((cis-4-(3-amino-3-methylazetidin-1-yl)cyclohexyl)amino)-7H-pyrrolo[2,3-d]pyrimidin-5-yl)(2-chlorophenyl)methanone] |
| 4.6 | C[C@H](O)C(=O)N(C)[C@H]1CC[C@@H](Nc2ncnc3[nH]cc(C(=O)c4ccccc4Cl)c23)CC1 [Compound I-106, (S)—N-(cis-4-((5-(2-chlorobenzoyl)-7H-pyrrolo[2,3-d]pyrimidin-4-yl)amino)cyclohexyl)-2-hydroxy-N-methylpropanamide] |
| 1.4 | C[C@]1(O)CC[C@@H](Nc2ncnc3[nH]cc(C(=O)c4ccc(Oc5ccccc5)cc4Cl)c23)CC1 [Compound I-200, (2-chloro-4-phenoxyphenyl)(4-((cis-4-hydroxy-4-methylcyclohexyl)amino)-7H-pyrrolo[2,3-d]pyrimidin-5-yl)methanone] |
| 18 | CC1(O)CN([C@H]2CC[C@H](Nc3ncnc4[nH]cc(C(=O)c5ccccc5Cl)c34)CC2)C1 [Compound I-112, (2-chlorophenyl)(4-((trans-4-(3-hydroxy-3-methylazetidin-1-yl)cyclohexyl)amino)-7H-pyrrolo[2,3-d]pyrimidin-5-yl)methanone] |
| 1.5 | CC(C)(O)C(=O)N[C@H]1CC[C@@H](Nc2ncnc3[nH]cc(C(=O)c4ccc(Oc5ccccc5)cc4Cl)c23)CC1 [Compound I-194, N-(cis-4-((5-(2-chloro-4-phenoxybenzoyl)-7H-pyrrolo[2,3-d]pyrimidin-4-yl)amino)cyclohexyl)-2-hydroxy-2-methylpropanamide] |
